Where two headings read alike, the source gives them in different places.
Legend:
[1] = system: MOLM-13 cells; assay: Cell viability assay (CellTiter-Glo) in MOLM-13 cells, alone or with gilteritinib; format: cell-based; settings: Homo sapiens, MOLM-13 cells, three days, CellTiter-Glo
[2] = system: MV4;11 cells; assay: Cell viability assay (CellTiter-Glo) in MV4;11 cells, alone or with gilteritinib; format: cell-based; settings: Homo sapiens, MV4;11 cells, three days, CellTiter-Glo, read-out: MV4
[3] = MOLM-13, 72 h, compound alone (without gilteritinib), read-out: MOLM-13 IC50
[4] = MOLM-13, 72 h, compound with gilteritinib 20 nM, read-out: MOLM-13 IC50 gilteritinib
[5] = MV4-11, 72 h, compound alone (without gilteritinib), 11 IC50
[6] = MV4-11, 72 h, compound with gilteritinib 10 nM, 11 IC50 gilteritinib
[7] = MOLM-13, 72 h, with gilteritinib 20 nM, read-out: MOLM-13 IC50 gilteritinib
[8] = MV4-11, 72 h, with gilteritinib 10 nM, 11 IC50 gilteritinib

Structure (SMILES)	IC50 [1, 3]	IC50 [1, 4]	IC50 [2, 5]	IC50 [2, 6]	IC50 [1, 7]	IC50 [2, 8]	IC50 ([1]; 72 h, compound alone (without gilteritinib), read-out: MOLM-13 IC50)	IC50 ([1]; 72 h, compound with gilteritinib 20 nM, read-out: MOLM-13 IC50 gilteritinib)	IC50 ([2]; 72 h, compound alone (without gilteritinib), 11 IC50)	IC50 ([2]; 72 h, compound with gilteritinib 10 nM, 11 IC50 gilteritinib)
O=C1CCC(N2C(=O)c3ccc(NCCCCCC(=O)N4CCC(n5cc(-c6cnc7cccc(N8CCNCC8)c7n6)cn5)CC4)cc3C2=O)C(=O)N1 (centres unmarked) [GS-035, 2-(2,6-Dioxopiperidin-3-yl)-5-((6-oxo-6-(4-(4-(8-(piperazin-1-yl)quinoxalin-2-yl)-1H-pyrazol-1-yl)piperidin-1-yl)hexyl)amino)isoindoline-1,3-dione]	> 1 µM		0.01 to 0.1 µM		< 0.01 µM	< 0.01 µM				
CN(c1ccccn1)C1CCN(CC(=O)NCCNc2ccc3c(c2)C(=O)N(C2CCC(=O)NC2=O)C3=O)CC1 (centres unmarked) [GS-321, N-(2-((2-(2,6-Dioxopiperidin-3-yl)-1,3-dioxoisoindolin-5-yl)amino)ethyl)-2-(4-(methyl(pyridin-2-yl)amino)piperidin-1-yl)acetamide]	> 1 µM		> 1 µM		0.1 to 1 µM	> 1 µM				
Cc1cccnc1-c1cn([C@H]2C[C@H](CNc3ccc4c(c3)C(=O)N(C3CCC(=O)NC3=O)C4=O)C2)nc1C1CC1 (stereo partly drawn) [GS-261, 5-(((trans-3-(3-Cyclopropyl-4-(3-methylpyridin-2-yl)-1H-pyrazol-1-yl)cyclobutyl)methyl)amino)-2-(2,6-dioxopiperidin-3-yl)isoindoline-1,3-dione]	< 0.01 µM		< 0.01 µM		< 0.01 µM	< 0.01 µM				
O=C1CCC(N2C(=O)c3ccc(NC[C@H]4C[C@H](n5cc(-c6cnc7ccc(CN8CCOCC8)cc7n6)c(C6CC6)n5)C4)cc3C2=O)C(=O)N1 (stereo partly drawn) [GS-067, 5-(((trans-3-(3-Cyclopropyl-4-(7-(morpholinomethyl)quinoxalin-2-yl)-1H-pyrazol-1-yl)cyclobutyl)methyl)amino)-2-(2,6-dioxopiperidin-3-yl)isoindoline-1,3-dione]	> 1 µM		0.01 to 0.1 µM		0.01 to 0.1 µM	0.01 to 0.1 µM				
O=C1CCC(N2Cc3cc(CNC(=O)Nc4cccc(N5CCC(c6ccccc6)CC5)c4)ccc3C2=O)C(=O)N1 (centres unmarked) [GS-514, 1-((2-(2,6-Dioxopiperidin-3-yl)-1-oxoisoindolin-5-yl)methyl)-3-(3-(4-phenylpiperidin-1-yl)phenyl)urea]							< 0.01 µM	< 0.01 µM	< 0.01 µM	< 0.01 µM
O=C1CCC(N2C(=O)c3ccc(NC[C@H]4C[C@H](n5cc(-c6cnc7ccccc7n6)cn5)C4)cc3C2=O)C(=O)N1 (stereo partly drawn) [GS-178, 2-(2,6-Dioxopiperidin-3-yl)-5-(((trans-3-(4-(quinoxalin-2-yl)-1H-pyrazol-1-yl)cyclobutyl)methyl)amino)isoindoline-1,3-dione]	0.1 to 1 µM		0.01 to 0.1 µM		0.01 to 0.1 µM	0.01 to 0.1 µM				
O=C1CCC(N2Cc3c(Nc4ccnc(NCC(=O)N5CCC(n6cc(-c7cnc8ccccc8n7)cn6)CC5)n4)cccc3C2=O)C(=O)N1 (centres unmarked) [GS-091, 3-(1-Oxo-4-((2-((2-oxo-2-(4-(4-(quinoxalin-2-yl)-1H-pyrazol-1-yl)piperidin-1-yl)ethyl)amino)pyrimidin-4-yl)amino)isoindolin-2-yl)piperidine-2,6-dione]	> 1 µM		> 1 µM		> 1 µM	> 1 µM				
O=C1CCC(N2Cc3c(Nc4ccnc(Nc5cccc(N6CCC(c7ccccc7)CC6)c5)n4)cccc3C2=O)C(=O)N1 (centres unmarked) [GS-075]	0.1 to 1 µM		0.1 to 1 µM		0.01 to 0.1 µM	0.01 to 0.1 µM				
O=C1CCC(N2Cc3c(Nc4ccnc(Nc5cccc(C(=O)N6CCC(n7cc(-c8cnc9ccccc9n8)cn7)CC6)c5)n4)cccc3C2=O)C(=O)N1 (centres unmarked) [GS-079, 3-(1-Oxo-4-((2-((3-(4-(4-(quinoxalin-2-yl)-1H-pyrazol-1-yl)piperidine-1-carbonyl)phenyl)amino)pyrimidin-4-yl)amino)isoindolin-2-yl)piperidine-2,6-dione]	> 1 µM		0.1 to 1 µM		0.1 to 1 µM	0.01 to 0.1 µM				
O=C1CCC(N2Cc3cc(Nc4ccnc(Nc5ccc6c(c5)CC(N5CCC(n7cc(-c8cnc9cccc(Br)c9n8)cn7)CC5)C6)n4)ccc3C2=O)C(=O)N1 (centres unmarked) [GS-072, 3-(5-((2-((2-(4-(4-(8-Bromoquinoxalin-2-yl)-1H-pyrazol-1-yl)piperidin-1-yl)-2,3-dihydro-1H-inden-5-yl)amino)pyrimidin-4-yl)amino)-1-oxoisoindolin-2-yl)piperidine-2,6-dione]	> 1 µM		> 1 µM		0.1 to 1 µM	0.1 to 1 µM				

Further lines, with some results ahead:

IC50 [1, 3]	IC50 [1, 4]	IC50 [2, 5]	IC50 [2, 6]	IC50 [1, 7]	IC50 [2, 8]	Structure (SMILES)	IC50 ([1]; 72 h, compound alone (without gilteritinib), read-out: MOLM-13 IC50)	IC50 ([1]; 72 h, compound with gilteritinib 20 nM, read-out: MOLM-13 IC50 gilteritinib)	IC50 ([2]; 72 h, compound alone (without gilteritinib), 11 IC50)	IC50 ([2]; 72 h, compound with gilteritinib 10 nM, 11 IC50 gilteritinib)
< 0.01 µM	< 0.01 µM	< 0.01 µM	< 0.01 µM			O=C1CCC(N2Cc3cc(NC(=O)C(F)(F)c4cccc(N5CCC(n6cc(-c7cnc8ccccc8n7)cn6)CC5)c4)ccc3C2=O)C(=O)N1 (centres unmarked) [GS-500, N-(2-(2,6-dioxopiperidin-3-yl)-1-oxoisoindolin-5-yl)-2,2-difluoro-2-(3-(4-(4-(quinoxalin-2-yl)-1H-pyrazol-1-yl)piperidin-1-yl)phenyl)acetamide]				
> 1 µM		> 1 µM		> 1 µM	0.1 to 1 µM	O=C1CCC(N2C(=O)c3ccc(NC(=O)CCCC(=O)N4CCC(n5cc(-c6cnc7ccccc7n6)cn5)CC4)cc3C2=O)C(=O)N1 (centres unmarked) [GS-327, N-(2-(2,6-Dioxopiperidin-3-yl)-1,3-dioxoisoindolin-5-yl)-5-oxo-5-(4-(4-(quinoxalin-2-yl)-1H-pyrazol-1-yl)piperidin-1-yl)pentanamide]				
> 1 µM	0.01 to 0.1 µM	0.01 to 0.1 µM	0.01 to 0.1 µM			O=C1CCC(N2C(=O)c3ccc(NCCC[C@H]4C[C@H](n5cc(-c6nccc7[nH]ncc67)c(C6CC6)n5)C4)cc3C2=O)C(=O)N1 (stereo partly drawn) [GS-626, 5-((3-(trans-3-(3-Cyclopropyl-4-(1H-pyrazolo[4,3-c]pyridin-4-yl)-1H-pyrazol-1-yl)cyclobutyl)propyl)amino)-2-(2,6-dioxopiperidin-3-yl)isoindoline-1,3-dione]				
0.1 to 1 µM	< 0.01 µM	0.01 to 0.1 µM	< 0.01 µM			CN1CCN(c2ccc3ncc(-c4cn(CCCCCCNc5ccc6c(c5)C(=O)N(C5CCC(=O)NC5=O)C6=O)nc4C4CC4)nc3c2)CC1 (centres unmarked) [GS-570, 5-((6-(3-Cyclopropyl-4-(7-(4-methylpiperazin-1-yl)quinoxalin-2-yl)-1H-pyrazol-1-yl)hexyl)amino)-2-(2,6-dioxopiperidin-3-yl)isoindoline-1,3-dione]				
0.01 to 0.1 µM	< 0.01 µM	0.1 to 1 µM	< 0.01 µM			O=C1CCC(N2C(=O)c3ccc(NCCCCCCn4cc(-c5cnc6ccc(C7CCNCC7)cc6n5)cn4)cc3C2=O)C(=O)N1 (centres unmarked) [GS-541, 2-(2,6-Dioxopiperidin-3-yl)-5-((6-(4-(7-(piperidin-4-yl)quinoxalin-2-yl)-1H-pyrazol-1-yl)hexyl)amino)isoindoline-1,3-dione]				
> 1 µM		> 1 µM		> 1 µM	> 1 µM	O=C1CCC(N2C(=O)c3ccc(NCCCCCC(=O)N4CC(Nc5ccccc5)C4)cc3C2=O)C(=O)N1 (centres unmarked) [GS-336, 2-(2,6-Dioxopiperidin-3-yl)-5-((6-oxo-6-(3-(phenylamino)azetidin-1-yl)hexyl)amino)isoindoline-1,3-dione]				
0.01 to 0.1 µM	< 0.01 µM	0.01 to 0.1 µM	< 0.01 µM			O=C1CCC(N2C(=O)c3ccc(NCCC[C@H]4C[C@H](n5cc(-c6cnc7cc(C8CCNCC8)ccc7n6)cn5)C4)cc3C2=O)C(=O)N1 (stereo partly drawn) [GS-421, 2-(2,6-dioxopiperidin-3-yl)-5-((3-(trans-3-(4-(6-(piperidin-4-yl)quinoxalin-2-yl)-1H-pyrazol-1-yl)cyclobutyl)propyl)amino)isoindoline-1,3-dione]				

From patent US20240050428A1 (Cullgen (Shanghai), Inc., priority 2020, published 2024)
